The results in this text go back to patent US20100074975A1, “Pharmaceutical composition for the prevention and treatment of liver disease comprising a lonicera caerulea L. Var. Edulis extract” (priority 2005, published 2010).

The subject of assay [1] is HepG2 cells. As to conditions: 48 hrs. The method, then: HepG2 cells were seeded in a 96-well plate at a density of 1×10^4 cells per well and incubated in a culture medium supplemented with 10% FBS for 16 hrs. After the 96-well plate was washed with physiological saline, ethyl alcohol, which was diluted in a culture medium in amounts of 0, 0.5, 1.0, 1.5 and 2.0% (v/v), was added to each well in which HepG2 cells were cultured. After incubation for 48 hrs, the cell number in each well was measured using a SRB method.
The culture medium was removed, and the 96-well plate was washed with physiological saline. The cells in each well were then fixed with 70% acetone for 20 min. The fixed cells were dried, stained with an SRB solution for 30 min, and washed with a 1% acetic acid solution five times to eliminate unbound SRB. After the cells were dried again, 10 mM Tris was added to the cells to dissolve cellular proteins and unbound SRB, and absorbance was measured at 562 nm using a spectrophotometer. The results were expressed as a percentage by comparing the absorbance of each well treated with ethyl alcohol with that of a control well not treated with ethyl alcohol (FIG. 2).

Assay [2] concerns HepG2 cells. Put plainly: Restoration of growth of cells whose growth is suppressed by ethyl alcohol (SRB method). It is filed as cell-based, human. As to conditions: HepG2, 1.5% ethyl alcohol for 24 hrs. As to the method:
After the 96-well plate was washed with physiological saline, ethyl alcohol, which was diluted in culture medium in 1.5% (v/v), was added to each well in which HepG2 cells were cultured. Cell damage was induced using ethyl alcohol for 24 hrs. Thereafter, the culture medium containing ethyl alcohol was removed, and the extract from L. caerulea fruits, which was diluted in culture medium in amounts of 0, 0.125, 0.25, 0.5 and 1 mg/ml, was added to each well. […] Cells in each well were then fixed with 70% acetone for 20 min. […] The absorbance of a well treated with ethyl alcohol alone and the absorbance of each well treated with alcohol plus the extract from L. caerulea fruits were compared with that of a control well which was not treated with ethyl alcohol or with the extract from L. caerulea fruits (FIG. 3).
The reduced absorbance increased in a manner that was dependent on the concentrations of the extract from L. caerulea fruits when the extract was administered at up to 0.5 mg/ml to the well treated with ethyl alcohol.
Thus, the degree of restoration of ethyl alcohol-induced cell growth damage by administration of the extract from L. caerulea fruits was calculated according to Equation 1, and the results are given in Table 1, below. […]
(In general: In SRB staining, fixed cells bind dye roughly in proportion to their protein.)

As for `CCO` [ethyl alcohol], the “effect on cell number” value in the assay with HepG2 cells [1] (HepG2, ethyl alcohol at concentrations of 1.5% or higher) is recorded as “reduced cell number”. For the same compound, the “effect on cell growth” value in the assay on HepG2 cells [1] (HepG2, ethyl alcohol at concentrations of up to 1% (v/v)) is “stimulate cell growth”. The “absorbance reduced in comparison with the well not treated with ethyl alcohol” value in the assay on HepG2 cells [2] stood at 22%.
